Series [1] relates to Sindbis virus. In words: Antiviral activity against SINV infected african green monkey Vero cells assessed as reduction of plaque formation at 100 uM measured after 48 hrs relative to control. In kind it is functional.
Series [2] concerns the target T1, Polyprotein P1234 (Chikungunya virus (strain S27-African prototype) (CHIKV), UniProt Q8JUX6). In words: Binding affinity to CHIKV nsP2 assessed as inhibition constant by measuring fluorescence by multimode microplate reader.
In series [3] the test system is Sindbis virus. Put plainly: Antiviral activity against SINV infected african green monkey Vero cells assessed as reduction in viral titer measured after 24 hrs by plaque assay. It is filed as functional, organism-based.
Series [4] has as its target T1, Polyprotein P1234. Put plainly: Binding affinity to CHIKV nsP2 assessed as equilibrium dissociation constant by isothermal titration calorimetry.
Series [5] in a line: Cytotoxicity against african green monkey Vero cells assessed as cell viability measured after 48 hrs by MTT assay. The note with it: chlorocebus sabaeus. In kind it is toxicity, cell-based. On the technique in general: Formazan colour is commonly taken as a measure of viable cells.
Series [6] has as its target T1, Polyprotein P1234. In words: Inhibition of CHIKV nsP2 protease activity assessed as decrease in the fluorescence signal using peptide substrate measured for 20 mins by FRET analysis.
A short description of series [7]: Selectivity index, ratio of CC50 for African green monkey Vero cells to EC50 for CHIKV. It is filed as toxicity. The conditions noted are these: read-out: Selectivity Index.
Series [8] relates to Chikungunya virus. In words: Antiviral activity against CHIKV infected african green monkey Vero cells assessed as inhibition of virus induced cytopathic effect measured after 48 hrs. It is filed as functional, organism-based. In general terms: Damage to the host cells serves as the signal in cytopathic effect assays.
Series [9] in a line: Antiviral activity against […] infected african green monkey Vero cells assessed as reduction in viral RNA copies measured per uL at 50 uM measured after 24 hrs (reference value: 1.4 x […] vRNA copy numbers/uL). In kind it is functional.
Series [10] relates to Chikungunya virus. In words: Antiviral activity against CHIKV infected african green monkey Vero cells assessed as inhibition of virus induced cytopathic effect by measuring virus positive cells at 50 uM measured after 48 hrs by flow cytometry relative to control. It is filed as functional. Set-up: scale not given: the % may be the effect or the level left.

Where only a bound is given, the exact number is not on record here.

T1 sequence (Q8JUX6 536-1333 limits assumed): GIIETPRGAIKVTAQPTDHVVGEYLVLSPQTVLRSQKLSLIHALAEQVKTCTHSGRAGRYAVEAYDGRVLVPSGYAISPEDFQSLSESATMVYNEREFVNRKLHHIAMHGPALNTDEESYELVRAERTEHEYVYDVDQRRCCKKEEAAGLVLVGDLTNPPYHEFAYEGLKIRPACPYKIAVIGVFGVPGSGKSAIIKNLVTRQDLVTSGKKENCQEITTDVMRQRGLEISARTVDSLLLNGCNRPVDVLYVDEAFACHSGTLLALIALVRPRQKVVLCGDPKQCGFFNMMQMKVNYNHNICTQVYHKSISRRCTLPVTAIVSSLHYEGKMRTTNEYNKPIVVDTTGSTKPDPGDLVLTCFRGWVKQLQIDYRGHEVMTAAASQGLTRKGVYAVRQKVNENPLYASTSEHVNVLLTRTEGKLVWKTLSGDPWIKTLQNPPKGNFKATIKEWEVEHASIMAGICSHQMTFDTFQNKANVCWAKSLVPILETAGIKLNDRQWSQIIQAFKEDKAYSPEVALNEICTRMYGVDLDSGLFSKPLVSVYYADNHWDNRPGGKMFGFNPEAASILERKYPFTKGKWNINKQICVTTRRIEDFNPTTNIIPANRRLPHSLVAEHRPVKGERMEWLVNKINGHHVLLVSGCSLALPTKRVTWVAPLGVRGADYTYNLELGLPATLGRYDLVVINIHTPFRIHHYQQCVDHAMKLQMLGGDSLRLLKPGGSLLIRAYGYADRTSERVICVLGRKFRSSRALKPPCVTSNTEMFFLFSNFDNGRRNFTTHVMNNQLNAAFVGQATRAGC

For `COc1ccccc1/C=C/C(=O)Nc1ccccc1`, in the series on Sindbis virus [1], the Imax amounted to 58%. Besides, the inhibition constant (Ki) at Polyprotein P1234 [2] is 2.3 µM. In addition, the concentration for a half-maximal effect (EC50) in the series with Sindbis virus [3] amounted to 73.1 µM; in the series with Chikungunya virus [8], 25.9 µM. The Kd at Polyprotein P1234 [4] stood at 198 µM. The CC50 at 48 h in series [5] is above 200 µM. At Polyprotein P1234 [6], the IC50 amounted to 0.95 µM. In addition, the selectivity ratio in series [7] was above 7.72.

On to `O=C(/C=C/c1ccc(C(F)(F)F)cc1)Nc1ccccc1`, for which the Imax in the series on Sindbis virus [1] stood at 95.76%. The Ki on Polyprotein P1234 [2] was found to be 48.6 µM. In addition, the EC50 in the series on Sindbis virus [3] was found to be 0.95 µM; with Chikungunya virus [8], 5.2 µM. The Kd at Polyprotein P1234 [4] came out at 127 µM. Also, the CC50 at 48 h in series [5] was determined as 165 µM. Further, the Activity is on record as 720000 in series [9] and 35.8% in the series with Chikungunya virus [10]. Further, the IC50 at Polyprotein P1234 [6] came out at 12.5 µM. Moreover, in series [7], the selectivity ratio stood at 31.8.

For the compound `O=C(/C=C/c1ccc(Br)cc1)Nc1ccccc1`, in the series on Sindbis virus [1], the Imax is above 79.9%. Besides, the Ki at Polyprotein P1234 [2] is 182 µM. Besides, the EC50 with Sindbis virus [3] came to 3.2 µM. For the same compound, the Kd on Polyprotein P1234 [4] worked out at 218 µM. The IC50 at Polyprotein P1234 [6] is 15.2 µM.

As for `O=C(/C=C/c1ccc(Cl)cc1Cl)Nc1ccccc1`, the Imax with Sindbis virus [1] was found to be 88.77%. Further, the inhibition constant (Ki) at Polyprotein P1234 [2] is 92.3 µM. Further, the figures for the EC50 in the series with Sindbis virus [3] and with Chikungunya virus [8] were below 3.12 µM and 47.9 µM, respectively. Also, the Kd at Polyprotein P1234 [4] was determined as 159 µM. Also, the CC50 at 48 h in series [5] was above 200 µM. Besides, the IC50 at Polyprotein P1234 [6] turned out to be 20 µM. The selectivity ratio in series [7] was above 4.17.

By Ki is commonly meant a dissociation constant, usually derived from enzyme kinetics or from competition with a known ligand. In general, EC50 refers to the concentration that produces a half-maximal response. As a reminder, the Kd is the free concentration of one partner at which half of the binding sites on the other are occupied at equilibrium, for simple one-to-one binding. Broadly, the CC50 is the concentration giving 50% cytotoxicity. A word on the IC50: it is the concentration that gives 50% inhibition.
